The record followed here is patent US8802688B2, “Substituted acetyl-coa carboxylase inhibitors” (Pfizer Inc., priority 2011, dated 2014).

The target of test [1] is T1, recombinant human ACC2 (rhACC2) (Homo sapiens, UniProt O00763, V2141I).
T1 construct: a full length Cytomax clone of ACC2 was purchased from Cambridge Bioscience Limited; made in house; host or cells: CHO cells, tetracycline-induced (PcDNA5 FRT TO-TOPO)
Briefly: recombinant hACC2 Transcreener ADP detection FP assay. The note with it: 50 μM ATP, 30 μM acetyl-CoA. The format is biochemical. As for the experimental part:
(§1) For example direct inhibition of ACC activity, for the compound of Formula (I) was determined using preparations of recombinant human ACC1 (rhACC1) and recombinant human ACC2 (rhACC2). Representative sequences of the recombinant human ACC1 and ACC2 that can be used in the assay are provided herein as SEQ ID NO. 1 and SEQ. ID NO. 2, respectively.
[3] Preparation of rhACC2. Human ACC2 inhibition was measured using purified recombinant human ACC2 (hrACC2). Briefly, a full length Cytomax clone of ACC2 was purchased from Cambridge Bioscience Limited and was sequenced and subcloned into PcDNA5 FRT TO-TOPO (Invitrogen, Carlsbad, Calif.). The ACC2 was expressed in CHO cells by tetracycline induction and harvested in 5 liters of DMEM/F12 with glutamine, biotin, hygromycin and blasticidin with 1 μg/mL tetracycline (Invitrogen, Carlsbad, Calif.). The conditioned medium containing ACC2 was then applied to a Softlink Soft Release Avidin column (Promega, Madison, Wis.) and eluted with 5 mM biotin. 4 mgs of ACC2 were eluted at a concentration of 0.05 mg/mL (determined by A280) with an estimated purity of 95% ([…]). The purified ACC2 was dialyzed in 50 mM Tris, 200 mM NaCl, 4 mM DTT, 2 mM EDTA, and 5% glycerol. The pooled protein was frozen and stored at −80° C., with no loss of activity upon thawing. For measurement of ACC2 activity and assessment of ACC2 inhibition, test compounds were dissolved in DMSO and added to the rhACC2 enzyme as a 5× stock with a final DMSO concentration of 1%.
[4] Measurement of human ACC2 inhibition. hACC2 was assayed in a Costar #3676 (Costar, Cambridge, Mass.) 384-well plate using the Transcreener ADP detection FP assay kit (Bellbrook Labs, Madison, Wis.) using the manufacturer's recommended conditions for a 50 uM ATP reaction. The final conditions for the assay were 50 mM HEPES, pH 7.2, 5 mM MgCl2, 5 mM tripotassium citrate, 2 mM DTT, 0.1 mg/mL BSA, 30 μM acetyl-CoA, 50 μM ATP, and 8 mM KHCO3. Typically, a 10 μl reaction was run for 50 min at 25° C., and 10 μl of Transcreener stop and detect buffer was added and the combination incubated at room temp for an additional 1 hour. The data was acquired on an Envision Fluorescence reader (Perkinelmer) using a 620 excitation Cy5 FP general dual mirror, 620 excitation Cy5 FP filter, 688 emission (S) and a 688 (P) emission filter.
(§2) The results using the recombinant hACC1 and recombinant hACC2 Transcreener assays described above are summarized in the table below for the Compounds of Formula (I) exemplified in the Examples above.

Test [2] deals with T2, recombinant human ACC1 (rhACC1) (Homo sapiens, UniProt Q13085, DEL44-44).
T2 construct: recombinant baculovirus containing full length human ACC1 cDNA; made in house; host or cells: SF9 insect cells, recombinant baculovirus
Description: recombinant hACC1 Transcreener ADP detection FP assay. Type of test: biochemical. The note with it: 50 μM ATP, 30 μM acetyl-CoA. As for the experimental part:
as §1
[1] Preparation of rhACC1. Two liters of SF9 cells, infected with recombinant baculovirus containing full length human ACC1 cDNA, were suspended in ice-cold lysis buffer (25 mM Tris, pH 7.5; 150 mM NaCl; 10% glycerol; 5 mM imidazole (EMD Bioscience; Gibbstown, N.J.); 2 mM TCEP (BioVectra; Charlottetown, Canada); Benzonase nuclease (10000 U/100 g cell paste; Novagen; Madison, Wis.); EDTA-free protease inhibitor cocktail (1 tab/50 mL; Roche Diagnostics; Mannheim, Germany). Cells were lysed by 3 cycles of freeze-thaw and centrifuged at 40,000×g for 40 minutes (4° C.). Supernatant was directly loaded onto a HisTrap FF crude column (GE Healthcare; Piscataway, N.J.) and eluted with an imidazole gradient up to 0.5 M over 20 column volumes (CV). ACC1-containing fractions were pooled and diluted 1:5 with 25 mM Tris, pH 7.5, 2 mM TCEP, 10% glycerol and direct loaded onto a CaptoQ (GE Healthcare) column and eluted with an NaCl gradient up to 1 M over 20 CV's. Phosphate groups were removed from purified ACC1 by incubation with lambda phosphatase (100 U/10 μM target protein; New England Biolabs; Beverly, Mass.) for 14 hours at 4° C.; okadaic acid was added (1 μM final concentration; Roche Diagnostics) to inhibit the phosphatase. Purified ACC1 was exchanged into 25 mM Tris, pH 7.5, 2 mM TCEP, 10% glycerol, 0.5 M NaCl by 6 hour dialysis at 4° C. Aliquots were prepared and frozen at −80° C.
[2] Measurement of rhACC1 inhibition. hACC1 was assayed in a Costar #3676 (Costar, Cambridge, Mass.) 384-well plate using the Transcreener ADP detection FP assay kit (Bellbrook Labs, Madison, Wis.) using the manufacturer's recommended conditions for a 50 μM ATP reaction. The final conditions for the assay were 50 mM HEPES, pH 7.2, 10 mM MgCl2, 7.5 mM tripotassium citrate, 2 mM DTT, 0.1 mg/mL BSA, 30 μM acetyl-CoA, 50 μM ATP, and 10 mM KHCO3 Typically, a 10 μl reaction was run for 120 min at 25° C., and 10 μl of Transcreener stop and detect buffer was added and the combination incubated at room temp for an additional 1 hour. The data was acquired on a Envision Fluorescence reader (Perkinelmer) using a 620 excitation Cy5 FP general dual mirror, 620 excitation Cy5 FP filter, 688 emission (S) and a 688 (P) emission filter.
as §2

T1 sequence (O00763 whole entry V2141I): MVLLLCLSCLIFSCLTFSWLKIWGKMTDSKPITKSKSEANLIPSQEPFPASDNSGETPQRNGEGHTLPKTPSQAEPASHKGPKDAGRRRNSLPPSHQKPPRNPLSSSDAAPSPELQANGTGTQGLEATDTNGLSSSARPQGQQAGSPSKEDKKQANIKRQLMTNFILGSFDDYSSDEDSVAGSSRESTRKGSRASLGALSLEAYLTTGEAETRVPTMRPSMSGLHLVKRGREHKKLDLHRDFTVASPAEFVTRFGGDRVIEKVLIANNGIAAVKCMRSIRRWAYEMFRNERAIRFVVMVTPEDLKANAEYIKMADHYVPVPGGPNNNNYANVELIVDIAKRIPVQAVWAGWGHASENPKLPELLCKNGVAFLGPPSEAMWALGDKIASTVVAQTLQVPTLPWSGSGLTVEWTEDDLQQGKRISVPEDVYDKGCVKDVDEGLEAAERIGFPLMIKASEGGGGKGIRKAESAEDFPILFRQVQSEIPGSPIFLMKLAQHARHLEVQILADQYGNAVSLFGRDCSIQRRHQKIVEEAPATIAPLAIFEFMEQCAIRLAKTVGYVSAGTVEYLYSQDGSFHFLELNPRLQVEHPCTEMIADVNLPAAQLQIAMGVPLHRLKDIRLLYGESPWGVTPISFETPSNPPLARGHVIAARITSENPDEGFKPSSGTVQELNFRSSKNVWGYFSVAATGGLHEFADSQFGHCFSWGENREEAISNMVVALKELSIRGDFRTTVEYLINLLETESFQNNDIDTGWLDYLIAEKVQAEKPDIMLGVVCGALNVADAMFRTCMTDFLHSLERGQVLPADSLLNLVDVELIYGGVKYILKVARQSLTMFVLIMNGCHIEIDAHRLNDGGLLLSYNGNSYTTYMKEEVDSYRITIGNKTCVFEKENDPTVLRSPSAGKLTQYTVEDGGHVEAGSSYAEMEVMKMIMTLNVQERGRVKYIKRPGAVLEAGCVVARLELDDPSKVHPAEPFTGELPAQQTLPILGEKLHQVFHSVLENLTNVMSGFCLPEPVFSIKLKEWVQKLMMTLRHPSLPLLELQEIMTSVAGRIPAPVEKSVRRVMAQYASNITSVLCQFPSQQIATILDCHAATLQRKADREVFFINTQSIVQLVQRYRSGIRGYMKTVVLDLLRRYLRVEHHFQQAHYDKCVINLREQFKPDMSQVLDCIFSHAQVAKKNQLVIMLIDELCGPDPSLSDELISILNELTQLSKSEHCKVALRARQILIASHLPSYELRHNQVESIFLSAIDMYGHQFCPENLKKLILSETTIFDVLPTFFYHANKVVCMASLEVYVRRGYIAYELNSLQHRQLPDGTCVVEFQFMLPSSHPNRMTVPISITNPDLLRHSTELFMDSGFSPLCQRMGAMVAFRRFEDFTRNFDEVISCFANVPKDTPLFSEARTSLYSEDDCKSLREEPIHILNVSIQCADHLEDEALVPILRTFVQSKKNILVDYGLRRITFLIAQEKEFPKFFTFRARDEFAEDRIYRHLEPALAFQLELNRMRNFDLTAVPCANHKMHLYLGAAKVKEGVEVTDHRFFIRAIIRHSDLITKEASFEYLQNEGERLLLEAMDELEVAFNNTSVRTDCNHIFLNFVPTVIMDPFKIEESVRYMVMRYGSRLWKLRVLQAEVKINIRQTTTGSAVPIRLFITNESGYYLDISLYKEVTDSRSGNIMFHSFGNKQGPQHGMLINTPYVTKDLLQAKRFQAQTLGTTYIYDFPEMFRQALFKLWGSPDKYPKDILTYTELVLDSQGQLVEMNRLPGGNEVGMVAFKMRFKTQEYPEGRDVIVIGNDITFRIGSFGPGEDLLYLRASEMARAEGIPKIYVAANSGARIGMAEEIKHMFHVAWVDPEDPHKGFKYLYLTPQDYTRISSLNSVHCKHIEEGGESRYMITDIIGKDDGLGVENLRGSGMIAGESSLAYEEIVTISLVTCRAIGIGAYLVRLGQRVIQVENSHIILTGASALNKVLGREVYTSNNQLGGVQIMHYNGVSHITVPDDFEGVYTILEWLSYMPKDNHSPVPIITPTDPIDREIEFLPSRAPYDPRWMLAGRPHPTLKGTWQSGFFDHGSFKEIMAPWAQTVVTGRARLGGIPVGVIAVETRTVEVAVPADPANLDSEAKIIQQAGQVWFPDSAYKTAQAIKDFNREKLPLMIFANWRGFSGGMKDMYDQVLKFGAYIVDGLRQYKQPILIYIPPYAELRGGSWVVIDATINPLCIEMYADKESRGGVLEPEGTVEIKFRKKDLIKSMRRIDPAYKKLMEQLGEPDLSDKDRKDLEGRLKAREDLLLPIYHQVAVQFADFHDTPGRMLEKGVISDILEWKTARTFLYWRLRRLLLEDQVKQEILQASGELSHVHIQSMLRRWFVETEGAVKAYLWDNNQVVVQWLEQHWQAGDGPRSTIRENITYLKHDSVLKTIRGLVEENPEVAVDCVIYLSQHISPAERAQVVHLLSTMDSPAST

What is called IC50 is the point on the concentration scale where inhibition reaches its midpoint. On to `CC(C)n1ncc2c1C(=O)CC1(CCN(C(=O)c3ccc4c(C(N)=O)c[nH]c4c3)CC1)C2` [Example 1, 6-[(1-isopropyl-7-oxo-1,4,6,7-tetrahydro-1′H-spiro[indazole-5,4′-piperidin]-1′-yl)carbonyl]-1H-indole-3-carboxamide], for which the IC50 in test [1] is 1.4 nM; in test [2], 6 nM.

In the case of `CNc1ccc2ccc(C(=O)N3CCC4(CC3)CC(=O)c3nn(C(C)(C)C)cc3C4)cc2n1` [Example 40], the IC50 in test [1] was 1.3 nM; in test [2] it was 2.2 nM.

With `CC(C)(C)n1cc2c(n1)C(=O)CC1(CCN(C(=O)c3cnc4c(C(N)=O)c[nH]c4c3)CC1)C2` [Example 45, 6-[(2-tert-butyl-7-oxo-2,4,6,7-tetrahydro-1′H-spiro[indazole-5,4′-piperidin]-1′-yl)carbonyl]-1H-pyrrolo[3,2-b]pyridine-3-carboxamide], the IC50 in test [1] is 2.8 nM; in test [2], 23 nM.

Consider `CC(C)n1ncc2c1C(=O)CC1(CCN(C(=O)c3cnc4[nH]cc(C(N)=O)c4c3)CC1)C2` [Example 5], for which the IC50 worked out at 5.8 nM in test [1] and 17 nM in test [2].

On to `CC(C)(C)n1cc2c(n1)C(=O)CC1(CCN(C(=O)c3ccc4ccc(N)nc4c3)CC1)C2` [Example 47, 1′-[(2-aminoquinolin-7-yl)carbonyl]-2-tert-butyl-2,4-dihydrospiro[indazole-5,4′-piperidin]-7(6H)-one], for which the IC50 in test [1] came out at 1.3 nM; in test [2], 5.3 nM.

For the molecule `CC(C)(C)n1cc2c(n1)C(=O)CC1(CCN(C(=O)c3ccc4c(C(N)=O)n[nH]c4c3)CC1)C2` [Example 29], the half-inhibitory concentration (IC50) worked out at 1.7 nM in test [1] and 8.6 nM in test [2].

As for `CC(C)n1ncc2c1C(=O)CC1(CCN(C(=O)c3ccc4nc(N)ccc4c3)CC1)C2` [Example 15], the half-maximal inhibitory concentration (IC50) in test [1] is 2.6 nM; in test [2], 14 nM.

On to `CC(C)n1ncc2c1C(=O)CC1(CCN(C(=O)c3ccc4[nH]cc(C(N)=O)c4c3)CC1)C2` [Example 7], for which the IC50 turned out to be 1.6 nM in test [1] and 5.6 nM in test [2].

Turning to `CNc1nc2cc(C(=O)N3CCC4(CC3)CC(=O)c3nn(C(C)(C)C)cc3C4)ccc2[nH]1` [Example 39], the IC50 was found to be 1.5 nM in test [1] and 9.8 nM in test [2].

On to `CC(C)(C)n1cc2c(n1)C(=O)CC1(CCN(C(=O)c3cnc4ccc(C(N)=O)cc4c3)CC1)C2` [Example 44], for which the IC50 worked out at 5.4 nM in test [1] and 31 nM in test [2].

As to `CC(C)(C)n1ncc2c1C(=O)CC1(CCN(C(=O)c3ccc4[nH]nc(C(N)=O)c4c3)CC1)C2` [Example 26], the concentration for half-maximal inhibition (IC50) in test [1] was found to be 2.1 nM; in test [2], 7.4 nM.

In the case of `CC(C)n1ncc2c1C(=O)CC1(CCN(C(=O)c3cnc4ccc(OCC(N)=O)cc4c3)CC1)C2` [Example 24, 2-({3-[(1-isopropyl-7-oxo-1,4,6,7-tetrahydro-1′H-spiro[indazole-5,4′-piperidin]-1′-yl)carbonyl]quinolin-6-yl}oxy)acetamide], the figures for the IC50 in test [1] and in test [2] were 20 nM and 43 nM, respectively.

Turning to `CC(C)(C)n1cc2c(n1)C(=O)CC1(CCN(C(=O)c3ccc4c(C#N)n[nH]c4c3)CC1)C2` [Example 41], the IC50 stood at 3.7 nM in test [1] and 18 nM in test [2].

For the molecule `CC(C)n1ncc2c1C(=O)CC1(CCN(C(=O)c3ccc4c(C(N)=O)n[nH]c4c3)CC1)C2` [Example 4], the half-maximal inhibitory concentration (IC50) in test [1] was 2.9 nM; in test [2], 6.5 nM.

On to `CC(C)(C)n1cc2c(n1)C(=O)CC1(CCN(C(=O)c3cnc4c(Cl)c[nH]c4c3)CC1)C2` [Example 42], for which the IC50 in test [1] came out at 1.8 nM; in test [2], 6.6 nM.

For `CC(C)(C)n1cc2c(n1)C(=O)CC1(CCN(C(=O)c3cnc4[nH]cc(C(N)=O)c4c3)CC1)C2` [Example 30], the IC50 turned out to be 2.6 nM in test [1] and 9.4 nM in test [2].

Take `CC(C)(C)n1cc2c(n1)C(=O)CC1(CCN(C(=O)c3ccc4[nH]c(C(N)=O)cc4c3)CC1)C2` [Example 32]: the IC50 amounted to 1.5 nM in test [1] and 8.1 nM in test [2].

Regarding `CC(C)n1ncc2c1C(=O)CC1(CCN(C(=O)c3ccc4ccc(N)nc4c3)CC1)C2` [Example 25, 1′-[(2-aminoquinolin-7-yl)carbonyl]-1-isopropyl-1,4-dihydrospiro[indazole-5,4′-piperidin]-7(6H)-one], the IC50 turned out to be 10 nM in test [1] and 12 nM in test [2].

On to `CC(C)n1ncc2c1C(=O)CC1(CCN(C(=O)c3ccc4[nH]nc(C(=O)NCC(F)(F)F)c4c3)CC1)C2` [Example 11], for which the IC50 stood at 5.5 nM in test [1] and 14 nM in test [2].

As to `CC(C)(C)n1cc2c(n1)C(=O)CC1(CCN(C(=O)c3cnc4ccc(OCC(N)=O)cc4c3)CC1)C2` [Example 46, 2-({3-[(2-tert-butyl-7-oxo-2,4,6,7-tetrahydro-1′H-spiro[indazole-5,4′-piperidin]-1′-yl)carbonyl]quinolin-6-yl}oxy)acetamide], the half-maximal inhibitory concentration (IC50) in test [1] came to 3.8 nM; in test [2], 14 nM.

For `CC(C)n1ncc2c1C(=O)CC1(CCN(C(=O)c3cnc4[nH]c(C(N)=O)cc4c3)CC1)C2` [Example 19, 5-[(1-isopropyl-7-oxo-1,4,6,7-tetrahydro-1′H-spiro[indazole-5,4′-piperidin]-1′-yl)carbonyl]-1H-pyrrolo[2,3-b]pyridine-2-carboxamide], the concentration for half-maximal inhibition (IC50) came out at 15 nM in test [1] and 63 nM in test [2].
